Laboratory results as given in US9067892B2, “Spiroheterocyclic N-oxypiperidines as pesticides” (Syngenta Crop Protection, Inc., priority 2008, dated 2015).
Read-outs that look alike come from different tables or passages of the source.

Tests used:
[1] = tested on: Myzus persicae (green peach aphid); assay: Example B1: Myzus persicae, mixed population, feeding/residual contact activity, preventive; conditions: foliar, 144 h, read-out: activity
[2] = tested on: Nilaparvata lugens (brown rice planthopper); assay: Example B8: Nilaparvata lugens, larvicide, feeding/contact; assay type: in vivo; conditions: rice seedlings sprayed, N3 nymphs, 6-12 days after treatment
Description: Activity Against Nilaparvata lugens (Brown Rice Planthopper) (Larvicide, Feeding/Contact) Rice seedlings are treated with the diluted test solutions in a spray chamber. After drying, they are infested with 20 N3 nymphs (2 replicates). 6-12 days after the treatment samples are checked for mortality, growth regulation, and effects on the F1 generation.

[3] = tested on: Aphis craccivora (cowpea aphid); assay: Example B11: translaminar activity against Aphis craccivora; assay type: in vivo; conditions: 120 h, French bean leaves, aphids on lower side, upper side painted, 5 days, mortality
Description: Translaminar Activity Against Aphis craccivora (Cowpea Aphid) French bean leaves (Phaseolus vulgaris) are infested with about 20 mixed age individuals on the lower leaf side using clip cages. 1 day after the infestation, the upper side of the leaves is treated with the test solution by painting. 5 days later, samples are checked for mortality.

[4] = tested on: Aphis craccivora (cowpea aphid); assay: Example B10: Aphis craccivora, mixed population, systemic/feeding; assay type: in vivo; conditions: 144 h, roots of infested pea seedlings in test solution, 6 days, mortality
Description: 6 days later, samples are checked for mortality.

[5] = tested on: Myzus persicae (green peach aphid); assay: Example B13: drench activity against Myzus persicae; assay type: in vivo; conditions: 168 h, pea seedlings in field soil, 7 days after infestation, mortality
Description: Drench Activity Against Myzus persicae (Green Peach Aphid) Pea seedlings cultivated in field soil are treated as drench application and infested with a mixed population of M. persicae. 7 days after infestation, samples are checked for mortality.

[6] = tested on: Myzus persicae (green peach aphid); assay: Example B2: Myzus persicae, mixed population, systemic/feeding activity, curative; conditions: 144 h, read-out: activity
[7] = tested on: Myzus persicae (green peach aphid); assay: Example B16: Myzus persicae on pepper plants, feeding/residual contact activity; assay type: in vivo; conditions: 144 h, infested pepper plants sprayed, 6 days after treatment, mortality, read-out: activity against Myzus persicae
[8] = tested on: Thrips Tabaci (onion thrips); assay: Example B3: Thrips tabaci, mixed population, feeding/residual contact activity, preventive; assay type: in vivo; conditions: foliar, 144 h, sunflower leaf discs sprayed, 6 days incubation, mortality
[9] = tested on: Aphis craccivora (cowpea aphid); assay: Example B15: Aphis craccivora, mixed population, adjuvant effect, curative; assay type: in vivo; conditions: for Abbott's efficacy (%) against Aphis craccivora: 3 ppm, formulated as EC050, adjuvant 0.1% (v/v) where named, broad bean plants, 7 days after treatment
Description: One day after infestation, plants are treated with diluted test solutions of the compound formulated as EC050 in a spray chamber (4 replicates). […] Efficacy was calculated with the aid of Abbott's formula.

[10] = tested on: Myzus persicae (green peach aphid); assay: Example B14: drench activity against Myzus persicae in field soil, persistence, comparison with state of the art; assay type: in vivo; conditions: for mortality at 12.5 ppm: Myzus persicae, soil, pepper plants in field soil, read-out: Mortality (%) xx days after application (drench, systemic action, persistence)
Description: (§1) Six weeks old pepper plants cultivated in field soil are treated as drench application at various rates (mg a.i./liter soil). The same day, plants are infested with a mixed population of M. persicae and incubated in the greenhouse under optimal greenhouse conditions. Samples are assessed 7 days after infestation on mortality. Treated plants are re-infested 7, 14, 21 and 28 days after application. Evaluation is always done 7 days after infestation. Plants are also checked for damage (phytotoxicity), visual assessment being made using a 0-100% rating scale (100%=total damage to plant; 0%=no damage to plant).

pepper plants = conditions: in vivo
Description: as §1

[11] = tested on: Tetranychus urticae (two-spotted spider mite); assay: Example B4: Tetranychus urticae, mixed population, feeding/residual contact activity, preventive; assay type: in vivo; conditions: foliar, 192 h, bean leaf discs sprayed, 8 days, egg, larval and adult mortality
Description: Activity Against Tetranychus urticae (Two-Spotted Spider Mite) (Mixed Population, Feeding/Residual Contact Activity, Preventive) Bean leaf discs on agar in 24-well microtiter plates are sprayed with test solutions. […] 8 days later, discs are checked for egg mortality, larval mortality, and adult mortality.

[12] = 0 days after application (infestation day; evaluated 7 days after infestation)
[13] = 14 days after application (re-infestation; evaluated 7 days after infestation)
[14] = 21 days after application (re-infestation; evaluated 7 days after infestation)
[15] = 28 days after application (re-infestation; evaluated 7 days after infestation)
[16] = 168 h, 7 days after application (re-infestation; evaluated 7 days after infestation)

Row | SMILES | pest or weed control at 400 ppm [1] | pest or weed control at 400 ppm [2] | pest or weed control at 400 ppm [3] | pest or weed control at 400 ppm [4] | pest or weed control at 25 ppm [5] | pest or weed control at 400 ppm [6] | pest or weed control at 200 ppm [7] | pest or weed control at 400 ppm [8] | Abbott's efficacy (%) against Aphis craccivora ([9]; Table B15A) | Abbott's efficacy (%) against Aphis craccivora ([9]; Table B15B) | effect of adjuvants on insecticidal activity (in words) ([9]; summary of Tables B15A and B15B) | mortality at 12.5 ppm [10, 12] | mortality at 12.5 ppm [10, 13] | mortality at 12.5 ppm [10, 14] | mortality at 12.5 ppm [10, 15] | mortality at 12.5 ppm [10, 16] | insecticidal action on Myzus persicae (in words) ([10]; summary of Table B14, drench) | plant compatibility on pepper plants (in words) (pepper plants) | pest or weed control at 400 ppm [11]
1 | CCOCN1C(=O)C(c2c(C)cc(C)cc2C)=C(OC(=O)OCC)C12CCN(OC)CC2 [P1.4] | > 80% | > 80% | > 80% | > 80% | > 80% | > 80% | ≥ 80% |  |  |  |  |  |  |  |  |  |  |  | 
2 | CCOC(=O)OC1=C(c2c(C)cc(C)cc2C)C(=O)N(C)C12CCN(OC)CC2 [P1.2, Carbonic acid ethyl ester 8-methoxy-1-methyl-2-oxo-3-(2,4,6-trimethyl-phenyl)-1,8-diaza-spiro[4.5]dec-3-en-4-yl ester] | > 80% | > 80% | > 80% | > 80% | > 80% | > 80% | ≥ 80% | > 80% | 54% | 25% | enhance the insecticidal activity of compound P1.2 significantly | 98% | 98% | 100% | 98% | 98% | very similar to the action of the compound of the state of the art | no damage at all | > 80%
3 | CON1CCC2(CC1)C(O)=C(c1c(C)cc(C)cc1C)C(=O)N2C [P2.2, 4-hydroxy-8-methoxy-1-methyl-3-(2,4,6-trimethyl-phenyl)-1,8-diaza-spiro[4.5]dec-3-en-2-one] | > 80% | > 80% | > 80% | > 80% | > 80% | > 80% | ≥ 80% | > 80% |  |  |  |  |  |  |  |  |  |  | > 80%
4 | CCOC(=O)OC1=C(c2c(C)cc(C)cc2C)C(=O)N(COC)C12CCN(OC)CC2 [P1.3] | > 80% | > 80% | > 80% | > 80% | > 80% | > 80% |  | > 80% |  |  |  |  |  |  |  |  |  |  | > 80%
5 | CCOC(=O)OC1=C(c2c(C)cc(C)cc2C)C(=O)N(COCCOC)C12CCN(OC)CC2 [P1.18] | > 80% | > 80% | > 80% | > 80% | > 80% | > 80% |  | > 80% |  |  |  |  |  |  |  |  |  |  | > 80%
6 | COCCN1C(=O)C(c2c(C)cc(C)cc2C)=C(O)C12CCN(OC)CC2 [P2.7] | > 80% | > 80% | > 80% | > 80% | > 80% |  |  |  |  |  |  |  |  |  |  |  |  |  | 
7 | CCOC(=O)OC1=C(c2c(C)cc(C)cc2C)C(=O)NC12CCN(OC)CC2 [A18, reference compound] |  |  |  |  |  |  |  |  |  |  |  | 100% | 98% | 95% | 95% | 100% |  | damages these to an untolerable high extend | 
8 | CCOC(=O)OC1=C(c2c(C)cc(C)cc2Br)C(=O)N(C)C12CCN(OC)CC2 [P1.11] | > 80% | > 80% | > 80% | > 80% | > 80% | > 80% | ≥ 80% |  |  |  |  |  |  |  |  |  |  |  | 
9 | CON1CCC2(CC1)C(O)=C(c1c(C)cc(C)cc1Br)C(=O)N2C [P2.14] | > 80% | > 80% | > 80% | > 80% | > 80% |  |  |  |  |  |  |  |  |  |  |  |  |  | > 80%
10 | COCN1C(=O)C(c2c(C)cc(C)cc2C)=C(O)C12CCN(OC)CC2 [P2.6] | > 80% | > 80% | > 80% | > 80% | > 80% | > 80% | ≥ 80% | > 80% |  |  |  |  |  |  |  |  |  |  | > 80%
11 | COCCOCN1C(=O)C(c2c(C)cc(C)cc2C)=C(O)C12CCN(OC)CC2 [P2.19] | > 80% | > 80% | > 80% | > 80% | > 80% | > 80% |  | > 80% |  |  |  |  |  |  |  |  |  |  | > 80%
